Reference: patent US20240216900A1, “SABRE CATALYSTS CONTAINING FLUORINATED CARBON CHAINS FOR DELIVERY OF METAL-FREE MRI CONTRAST AGENTS” (The U.S.A., as represented by the Secretary, Department of …, priority 2022, published 2024)

Experiments:
[1] = cited from earlier work
[2] = Relaxation dynamics of hyperpolarized [1-13C]pyruvate (build-up time Tb and T1)
Description: In addition, the relaxation dynamics of the [1-^13C]pyruvate were also studied.
In addition, relaxation dynamics at earth field and 1.8 T are about the same as a non-fluorinated SABRE catalyst T1=28.9±1.6 s and 66.5±7 s, respectively.

[3] = as above; remark: listed apart in the source
[4] = Example 7: Example 4 catalyst, DMSO, methanol
[5] = Example 25: Example 4 catalyst, DMSO, NFBME/MeOD fluorous mixture
[6] = Example 31: Example 4 catalyst, DMSO, CD3OD/Novec 7100
[7] = Example 32: Example 4 catalyst, PTMSO, CD3OD/Novec 7100

Row | SMILES | H2 solubility in water [1] | T1 at 1.8T [2, 4] [s] | T1 at earth field [2, 4] [s] | T1 at 1.8T [2, 5] [s] | T1 at earth field [2, 5] [s] | T1 at 1.8T [2, 6] [s] | T1 at earth field [2, 6] [s] | T1 at 1.8T [2, 7] [s] | T1 at earth field [2, 7] [s] | T1 (relaxation at 0.4 μT) [3, 4] [s] | T1 (relaxation at 0.4 μT) [3, 5] [s] | T1 (relaxation at 0.4 μT) [3, 6] [s] | T1 (relaxation at 0.4 μT) [3, 7] [s]
1 | [HH] [Example H2] | about 1.6 mg/L | – | – | – | – | – | – | – | – | – | – | – | –
2 | CC(=O)C(=O)O [[1-^13C]pyruvate, sodium [1-^13C]pyruvate] | – | 66.5 ± 7 | 28.9 ± 1.6 | 16.0 ± 1.4 | 9.0 ± 1.9 | 66.5 ± 3.6 | 9.3 ± 0.8 | 59.0 ± 8.1 | 14.9 ± 1.0 | 16.1 ± 0.9 | 11.3 ± 1.3 | 12.6 ± 1.1 | 18.0 ± 0.8
